Experimental data taken from US20110245249A1, “Heterocyclically Substituted Anilinopyrimidines” (Bayer CropScience AG, priority 2008, published 2011).

Assay: logP by HPLC on reversed-phase columns (EEC Directive 79/831 Annex V.A8)
Type: physicochemical
Settings: for log p [c]: pH 7.8; for log p [a]: pH 2.3
Description: The logP values were measured in accordance with EEC Directive 79/831 Annex V.A8 by HPLC (High Performance Liquid Chromatography) on reversed-phase columns (C 18) using the methods below:
[a] The determination was carried out in the acidic range at pH 2.3 using the mobile phases 0.1% aqueous phosphoric acid and acetronitrile linear gradient from 10% acetonitrile to 95% acetronitrile. [b] The LC-MS determination in the acid range was carried out at pH 2.7 using the mobile phases 0.1% aqueous formic acid and acetonitrile (contains 0.1% formic acid) linear gradient from 10% acetonitrile to 95% acetonitrile. [c] The LC-MS determination in the neutral range was carried out at pH 7.8 using the mobile phases 0.001 molar aqueous ammonium bicarbonate solution and acetonitrile linear gradient from 10% acetonitrile to 95% acetonitrile.

SMILES | log p [b] (pH 2.7) | log p [c] | further results
CCCCCCC1COC(c2cccc(Nc3ncc(Cl)c(NC4CC4)n3)c2)O1 (centres unmarked) [Example 38] | 4.14 | 5.29 | 
CCCCC1COC(c2cccc(Nc3ncc(Cl)c(NC4CC4)n3)c2)O1 (centres unmarked) [Example 39] | 3.16 | 4.4 | 
CCN(CC)CC1COC(c2cccc(Nc3ncc(Cl)c(NC4CC4)n3)c2)O1 (centres unmarked) [Example 40, 5-Chloro-N^4-cyclopropyl-N^2-(3-{4-[(diethylamino)methyl]-1,3-dioxolan-2-yl}phenyl)-pyrimidine-2,4-diamine] |  |  | chromatographic logP (pH 2.7, log p [b]): 1.07; chromatographic logP (pH 2.7, logP (pH 2.7)): 1.05; chromatographic logP (pH 7.8, log p [c]): 3.9
Clc1cnc(Nc2cccc(C3OCC(CN4CCOCC4)O3)c2)nc1NC1CC1 (centres unmarked) [Example 41] |  | 2.54[c] | 
OCC1COC(c2cccc(Nc3ncc(Cl)c(NC4CC4)n3)c2)O1 (centres unmarked) [Example 42] | 1.16 | 1.96 | 
Clc1cnc(Nc2cccc(C3OCC(CN4CCCC4)O3)c2)nc1NC1CC1 (centres unmarked) [Example 43] | 0.99[b] |  | 
Clc1cnc(Nc2cccc(C3OC4CCCCC4O3)c2)nc1NC1CC1 (centres unmarked) [Example 44] | 2.65 | 3.99 | 
FC(F)(F)CNc1nc(Nc2cccc(C3OCCO3)c2)ncc1Cl [Example 45] | 2.35 | 2.73 | 
Clc1cnc(Nc2cccc(C3OCCS3)c2)nc1NC1CC1 (centres unmarked) [Example 46, 5-Chloro-N^4-cyclopropyl-N^2-[3-(1,3-oxathiolan-2-yl)phenyl]pyrimidine-2,4-diamine] |  |  | chromatographic logP (pH 2.7, log p [b]): 2.05; chromatographic logP (pH 2.7, logP (pH 2.7)): 2.05; chromatographic logP (pH 7.8, log p [c]): 3.26
Clc1cnc(Nc2cccc(C3SCCS3)c2)nc1NC1CC1 [Example 47] | 2.42 | 3.68 | 
CC1(c2cccc(Nc3ncc(C(F)(F)F)c(NC4CC4)n3)c2)OCCCO1 [Example 48] | 3.29 | 3.64 | 
Ic1cnc(Nc2cccc(C3OCCO3)c2)nc1NC1CC1 [Example 49] | 1.75 | 3.02 | 
Clc1ccc(Nc2ncc(Cl)c(NC3CC3)n2)cc1C1OCCO1 [Example 50] | 2.31 | 3.28 | 
Fc1cnc(Nc2cccc(C3OCCCO3)c2)nc1NC1CC1 [Example 51] | 1.28[b] | 2.4 | log p [a]: 1.23
FC(F)CNc1nc(Nc2cccc(C3OCCCO3)c2)ncc1Cl [Example 52] | 1.97[b] | 2.68 | log p [a]: 1.6
FC(F)(F)CNc1nc(Nc2cccc(C3OCCCO3)c2)ncc1Cl [Example 53] | 2.48[b] | 2.86 | log p [a]: 2.08
C#CCNc1nc(Nc2cccc(C3OCCCO3)c2)ncc1Cl [Example 54] | 1.67[b] | 2.48 | log p [a]: 1.38
Cc1cnc(Nc2cccc(C3OCCCO3)c2)nc1NC1CC1 [Example 55] | 1.28[b] | 2.37 | log p [a]: 1.32
COCC(C)Nc1nc(Nc2cccc(C3OCCCO3)c2)ncc1Cl (centres unmarked) [Example 56] | 1.69[b] | 2.92 | log p [a]: 1.46
Ic1cnc(Nc2cccc(C3OCCCO3)c2)nc1NC1CC1 [Example 57] | 2.23[b] | 3.18 | log p [a]: 1.6
Cc1cnc(Nc2cccc(C3OCCO3)c2)nc1NC1CC1 [Example 58] | 1.21[b] | 2.25 | log p [a]: 1.21
Fc1cnc(Nc2cccc(C3OCCO3)c2)nc1NC1CC1 [Example 59] | 1.60[b] | 2.28 | log p [a]: 1.14
FC(F)CNc1nc(Nc2cccc(C3OCCO3)c2)ncc1Cl [Example 60] | 1.88[b] | 2.55 | log p [a]: 1.49
COCC(C)Nc1nc(Nc2cccc(C3OCCO3)c2)ncc1Cl (centres unmarked) [Example 61] | 1.62[b] |  | 
Clc1ccc(Nc2ncc(Cl)c(NC3CC3)n2)cc1C1OCCCO1 [Example 62] | 2.44 | 3.47 | 
COC(OC)c1cccc(Nc2ncc(Cl)c(NC3CC3)n2)c1 [Example 63] | 1.87 | 3.07 | 
CCOC(OCC)c1cccc(Nc2ncc(Cl)c(NC3CC3)n2)c1 [Example 64] | 2.58 | 3.86 | 

SMILES | log p [b] (pH 2.7) | log p [c] | further results
CC(C)OC(OC(C)C)c1cccc(Nc2ncc(Cl)c(NC3CC3)n2)c1 [Example 65] |  | 4.44[c]; | 
CCCCOC(OCCCC)c1cccc(Nc2ncc(Cl)c(NC3CC3)n2)c1 [Example 66] | 4.64 | 5.83 | logP (pH 2.7) (pH 2.7): 4.64
CC1(c2cccc(Nc3ncc(C(F)(F)F)c(NCC4CC4)n3)c2)OCCCO1 [Example 68] | 3.42[b] |  | 
CC1(c2cccc(Nc3ncc(C(F)(F)F)c(NC4CCC4)n3)c2)OCCCO1 [Example 69] | 3.81 | 4.24 | 
CC1(C)COC(C)(c2cccc(Nc3ncc(Cl)c(NC4CC4)n3)c2)OC1 [Example 71] | 2.99 | 4.35 | 
CC1COC(C)(c2cccc(Nc3ncc(C(F)(F)F)c(NC4CC4)n3)c2)O1 (centres unmarked) [Example 72] | 3.52 | 3.94 | 
CC1(C)COC(C)(c2cccc(Nc3ncc(C(F)(F)F)c(NC4CC4)n3)c2)OC1 [Example 73] | 4.32 | 4.7 | 
CCC1(c2cccc(Nc3ncc(Cl)c(NC4CC4)n3)c2)OCC(C)O1 (centres unmarked) [Example 74] | 2.67 | 4.1 | 
CC1CC1Nc1nc(Nc2cccc(C3OCCO3)c2)ncc1Cl (centres unmarked) [Example 75] |  | 3.21[c] | 
CC1CC1Nc1nc(Nc2cccc(C3(C)OCCO3)c2)ncc1Cl (centres unmarked) [Example 76] | 2.32 | 3.67 | 
Brc1cnc(Nc2ccc(C3OCCCO3)cc2)nc1NC1CCC1 [Example 77] | 2.2 | 3.61 | 
FC(F)(F)c1cnc(Nc2ccc(C3OCCCO3)cc2)nc1NC1CC1 [Example 78] | 2.72 | 3.21 | 
Brc1cnc(Nc2cccc(C3OCC(C4CC4)CO3)c2)nc1NC1CC1 (centres unmarked) [Example 79] | 2.77 | 4.03 | 
Clc1cnc(Nc2cccc(C3OCC(C4CC4)CO3)c2)nc1NC1CCC1 (centres unmarked) [Example 80] | 2.93 | 4.43 | 
C=C1COC(c2cccc(Nc3ncc(Br)c(NC4CC4)n3)c2)OC1 [Example 81] | 2.1 | 3.27 | 
C=C1COC(c2cccc(Nc3ncc(Br)c(NC4CCC4)n3)c2)OC1 [Example 82] | 2.43 | 3.85 | 
CC1COC(c2cccc(Nc3ncc(C(F)(F)F)c(NC4CC4)n3)c2)O1 (centres unmarked) [Example 83] | 2.94[b] | 3.45 | log p [a]: 2.44
CC1COC(c2cccc(Nc3ncc(Br)c(NC4CC4)n3)c2)O1 (centres unmarked) [Example 84] | 2.03 | 3.25 | 
CC1COC(c2cccc(Nc3ncc(Br)c(NC4CCC4)n3)c2)O1 (centres unmarked) [Example 85] | 2.39 | 3.84 | 
CC1COC(c2cccc(Nc3ncc(Cl)c(NC4CCC4)n3)c2)O1 (centres unmarked) [Example 86] | 2.2 | 3.68 | 
CC1COC(c2cccc(Nc3ncc(C(F)(F)F)c(NC4CCC4)n3)c2)O1 (centres unmarked) [Example 87] | 3.51 | 4.04 | 
CCC1COC(c2cccc(Nc3ncc(C(F)(F)F)c(NC4CC4)n3)c2)O1 (centres unmarked) [Example 88] | 3.48 | 3.9 | 
CCC1COC(c2cccc(Nc3ncc(Br)c(NC4CCC4)n3)c2)O1 (centres unmarked) [Example 89] | 2.88 | 4.35 | 
CCC1COC(c2cccc(Nc3ncc(Cl)c(NC4CCC4)n3)c2)O1 (centres unmarked) [Example 90] | 2.65 | 4.18 | 
C=C1COC(c2cccc(Nc3ncc(Cl)c(NC4CCC4)n3)c2)OC1 [Example 91] |  | 3.73[c] | 
C=C1COC(c2cccc(Nc3ncc(Cl)c(NC4CC4)n3)c2)OC1 [Example 92] | 2.01 | 3.18 | 
